In ChEMBL document CHEMBL3046635, “Synthesis and Herbicidal Activity of New Pyrazole-4-carboxamide Derivatives” (J Pestic Sci, 2004):
Active and inactive are the calls of the source.

test system: Pontederia vaginalis; assay: Pre-emergence herbicidal activity against Monochoria vaginalis assessed as bleaching of stem/leaf parts; format: functional, organism-based; details: not given

Compound | Activity
Cn1cc(C(=O)Nc2ccc(C(C)(C)C)cc2)c(OCc2cccc(C(F)(F)F)c2)n1 | Active
Cn1cc(C(=O)Nc2ccc(S(C)(=O)=O)cc2)c(OCc2cccc(C(F)(F)F)c2)n1 | Active
Cn1cc(C(=O)Nc2cccc(Cl)c2)c(OCc2cccc(C(F)(F)F)c2)n1 | Active

test system: Cyperus difformis; assay: Pre-emergence herbicidal activity against Cyperus difformis assessed as bleaching of stem/leaf parts; format: functional, organism-based; details: not given

Compound | Activity
Cn1cc(C(=O)Nc2ccc(C(C)(C)C)cc2)c(OCc2cccc(C(F)(F)F)c2)n1 | Active
Cn1cc(C(=O)Nc2ccc(S(C)(=O)=O)cc2)c(OCc2cccc(C(F)(F)F)c2)n1 | Active
Cn1cc(C(=O)Nc2cccc(Cl)c2)c(OCc2cccc(C(F)(F)F)c2)n1 | Active

test system: Eleocharis acicularis; assay: Pre-emergence herbicidal activity against Eleocharis acicularis at 500 g a.i/ha measured after 14 days; format: functional, organism-based; details: not given

Compound | Activity
Cn1cc(C(=O)Nc2ccc(C(C)(C)C)cc2)c(OCc2cccc(C(F)(F)F)c2)n1 | inactive

test system: Eleocharis acicularis; assay: Pre-emergence herbicidal activity against Eleocharis acicularis assessed as bleaching of stem/leaf parts; format: functional, organism-based; details: not given

Compound | Activity
Cn1cc(C(=O)Nc2ccc(C(C)(C)C)cc2)c(OCc2cccc(C(F)(F)F)c2)n1 | Active
Cn1cc(C(=O)Nc2ccc(S(C)(=O)=O)cc2)c(OCc2cccc(C(F)(F)F)c2)n1 | Active
Cn1cc(C(=O)Nc2cccc(Cl)c2)c(OCc2cccc(C(F)(F)F)c2)n1 | Active

test system: Schoenoplectiella juncoides; assay: Pre-emergence herbicidal activity against Schoenoplectiella juncoides assessed as bleaching of stem/leaf parts; format: functional, organism-based; details: not given

Compound | Activity
Cn1cc(C(=O)Nc2ccc(C(C)(C)C)cc2)c(OCc2cccc(C(F)(F)F)c2)n1 | Active
Cn1cc(C(=O)Nc2ccc(S(C)(=O)=O)cc2)c(OCc2cccc(C(F)(F)F)c2)n1 | Active
Cn1cc(C(=O)Nc2cccc(Cl)c2)c(OCc2cccc(C(F)(F)F)c2)n1 | Active

test system: Ammannia multiflora; assay: Post-emergence herbicidal activity against Ammannia multiflora assessed as bleaching of stem/leaf parts; format: functional, organism-based; details: not given; further: test concentration or dose not given here

Compound | Activity
Cn1cc(C(=O)Nc2ccc(C(C)(C)C)cc2)c(OCc2cccc(C(F)(F)F)c2)n1 | Active
Cn1cc(C(=O)Nc2ccc(S(C)(=O)=O)cc2)c(OCc2cccc(C(F)(F)F)c2)n1 | Active
Cn1cc(C(=O)Nc2cccc(Cl)c2)c(OCc2cccc(C(F)(F)F)c2)n1 | Active

test system: Elatine triandra; assay: Pre-emergence herbicidal activity against Elatine triandra assessed as bleaching of stem/leaf parts; format: functional, organism-based; details: not given

Compound | Activity
Cn1cc(C(=O)Nc2ccc(C(C)(C)C)cc2)c(OCc2cccc(C(F)(F)F)c2)n1 | Active
Cn1cc(C(=O)Nc2ccc(S(C)(=O)=O)cc2)c(OCc2cccc(C(F)(F)F)c2)n1 | Active
Cn1cc(C(=O)Nc2cccc(Cl)c2)c(OCc2cccc(C(F)(F)F)c2)n1 | Active

test system: Lindernia procumbens; assay: Pre-emergence herbicidal activity against Lindernia procumbens at 500 g a.i/ha measured after 14 days; format: functional, organism-based; details: not given

Compound | Activity
Cn1cc(C(=O)Nc2ccc(C(C)(C)C)cc2)c(OCc2cccc(C(F)(F)F)c2)n1 | inactive
Cn1cc(C(=O)Nc2ccc(S(C)(=O)=O)cc2)c(OCc2cccc(C(F)(F)F)c2)n1 | inactive
Cn1cc(C(=O)Nc2cccc(Cl)c2)c(OCc2cccc(C(F)(F)F)c2)n1 | Active

test system: Elatine triandra; assay: Post-emergence herbicidal activity against Elatine triandra assessed as bleaching of stem/leaf parts; format: functional, organism-based; details: not given; further: test concentration or dose not given here

Compound | Activity
Cn1cc(C(=O)Nc2ccc(C(C)(C)C)cc2)c(OCc2cccc(C(F)(F)F)c2)n1 | Active
Cn1cc(C(=O)Nc2ccc(S(C)(=O)=O)cc2)c(OCc2cccc(C(F)(F)F)c2)n1 | Active
Cn1cc(C(=O)Nc2cccc(Cl)c2)c(OCc2cccc(C(F)(F)F)c2)n1 | Active

test system: Elatine triandra; assay: Pre-emergence herbicidal activity against Elatine triandra at 500 g a.i/ha measured after 14 days; format: functional, organism-based; details: not given

Compound | Activity
Cn1cc(C(=O)Nc2ccc(C(C)(C)C)cc2)c(OCc2cccc(C(F)(F)F)c2)n1 | inactive
Cn1cc(C(=O)Nc2ccc(S(C)(=O)=O)cc2)c(OCc2cccc(C(F)(F)F)c2)n1 | inactive
Cn1cc(C(=O)Nc2cccc(Cl)c2)c(OCc2cccc(C(F)(F)F)c2)n1 | Active

test system: Oryza sativa; assay: Phytotoxicity against Oryza sativa cv. Koshihikari (rice) at 500 g a.i/ha measured after 14 days; format: organism-based; details: in vivo, 336 h

Compound | Activity
Cn1cc(C(=O)Nc2ccc(C(C)(C)C)cc2)c(OCc2cccc(C(F)(F)F)c2)n1 | Non-toxic
Cn1cc(C(=O)Nc2ccc(S(C)(=O)=O)cc2)c(OCc2cccc(C(F)(F)F)c2)n1 | Non-toxic
Cn1cc(C(=O)Nc2cccc(Cl)c2)c(OCc2cccc(C(F)(F)F)c2)n1 | Non-toxic

test system: Ammannia multiflora; assay: Pre-emergence herbicidal activity against Ammannia multiflora assessed as bleaching of stem/leaf parts; format: functional, organism-based; details: not given

Compound | Activity
Cn1cc(C(=O)Nc2ccc(C(C)(C)C)cc2)c(OCc2cccc(C(F)(F)F)c2)n1 | Active
Cn1cc(C(=O)Nc2ccc(S(C)(=O)=O)cc2)c(OCc2cccc(C(F)(F)F)c2)n1 | Active
Cn1cc(C(=O)Nc2cccc(Cl)c2)c(OCc2cccc(C(F)(F)F)c2)n1 | Active

test system: Cyperus difformis; assay: Pre-emergence herbicidal activity against Cyperus difformis at 500 g a.i/ha measured after 14 days; format: functional, organism-based; details: not given

Compound | Activity
Cn1cc(C(=O)Nc2ccc(C(C)(C)C)cc2)c(OCc2cccc(C(F)(F)F)c2)n1 | inactive
Cn1cc(C(=O)Nc2ccc(S(C)(=O)=O)cc2)c(OCc2cccc(C(F)(F)F)c2)n1 | inactive
Cn1cc(C(=O)Nc2cccc(Cl)c2)c(OCc2cccc(C(F)(F)F)c2)n1 | inactive

test system: Rotala indica; assay: Post-emergence herbicidal activity against Rotala indica assessed as bleaching of stem/leaf parts; format: functional, organism-based; details: not given; further: test concentration or dose not given here

Compound | Activity
Cn1cc(C(=O)Nc2ccc(C(C)(C)C)cc2)c(OCc2cccc(C(F)(F)F)c2)n1 | Active
Cn1cc(C(=O)Nc2ccc(S(C)(=O)=O)cc2)c(OCc2cccc(C(F)(F)F)c2)n1 | Active
Cn1cc(C(=O)Nc2cccc(Cl)c2)c(OCc2cccc(C(F)(F)F)c2)n1 | Active

test system: Cyperus difformis; assay: Post-emergence herbicidal activity against Cyperus difformis assessed as bleaching of stem/leaf parts; format: functional, organism-based; details: not given; further: test concentration or dose not given here

Compound | Activity
Cn1cc(C(=O)Nc2ccc(C(C)(C)C)cc2)c(OCc2cccc(C(F)(F)F)c2)n1 | Active
Cn1cc(C(=O)Nc2ccc(S(C)(=O)=O)cc2)c(OCc2cccc(C(F)(F)F)c2)n1 | Active
Cn1cc(C(=O)Nc2cccc(Cl)c2)c(OCc2cccc(C(F)(F)F)c2)n1 | Active

test system: Echinochloa oryzicola; assay: Post-emergence herbicidal activity against Echinochloa oryzicola assessed as bleaching of stem/leaf parts; format: functional, organism-based; details: not given; further: test concentration or dose not given here

Compound | Activity
Cn1cc(C(=O)Nc2ccc(C(C)(C)C)cc2)c(OCc2cccc(C(F)(F)F)c2)n1 | Active
Cn1cc(C(=O)Nc2ccc(S(C)(=O)=O)cc2)c(OCc2cccc(C(F)(F)F)c2)n1 | Active
Cn1cc(C(=O)Nc2cccc(Cl)c2)c(OCc2cccc(C(F)(F)F)c2)n1 | Active

test system: Pontederia vaginalis; assay: Pre-emergence herbicidal activity against Monochoria vaginalis at 500 g a.i/ha measured after 14 days; format: functional, organism-based; details: not given

Compound | Activity
Cn1cc(C(=O)Nc2ccc(C(C)(C)C)cc2)c(OCc2cccc(C(F)(F)F)c2)n1 | inactive
Cn1cc(C(=O)Nc2ccc(S(C)(=O)=O)cc2)c(OCc2cccc(C(F)(F)F)c2)n1 | inactive
Cn1cc(C(=O)Nc2cccc(Cl)c2)c(OCc2cccc(C(F)(F)F)c2)n1 | inactive

test system: Lindernia procumbens; assay: Post-emergence herbicidal activity against Lindernia procumbens assessed as bleaching of stem/leaf parts; format: functional, organism-based; details: not given; further: test concentration or dose not given here

Compound | Activity
Cn1cc(C(=O)Nc2ccc(C(C)(C)C)cc2)c(OCc2cccc(C(F)(F)F)c2)n1 | Active
Cn1cc(C(=O)Nc2ccc(S(C)(=O)=O)cc2)c(OCc2cccc(C(F)(F)F)c2)n1 | Active
Cn1cc(C(=O)Nc2cccc(Cl)c2)c(OCc2cccc(C(F)(F)F)c2)n1 | Active

test system: Echinochloa oryzicola; assay: Pre-emergence herbicidal activity against Echinochloa oryzicola assessed as bleaching of stem/leaf parts; format: functional, organism-based; details: not given

Compound | Activity
Cn1cc(C(=O)Nc2ccc(C(C)(C)C)cc2)c(OCc2cccc(C(F)(F)F)c2)n1 | Active
Cn1cc(C(=O)Nc2ccc(S(C)(=O)=O)cc2)c(OCc2cccc(C(F)(F)F)c2)n1 | Active
Cn1cc(C(=O)Nc2cccc(Cl)c2)c(OCc2cccc(C(F)(F)F)c2)n1 | Active

test system: Rotala indica; assay: Pre-emergence herbicidal activity against Rotala indica at 500 g a.i/ha measured after 14 days; format: functional, organism-based; details: not given

Compound | Activity
Cn1cc(C(=O)Nc2ccc(C(C)(C)C)cc2)c(OCc2cccc(C(F)(F)F)c2)n1 | inactive
Cn1cc(C(=O)Nc2ccc(S(C)(=O)=O)cc2)c(OCc2cccc(C(F)(F)F)c2)n1 | inactive
Cn1cc(C(=O)Nc2cccc(Cl)c2)c(OCc2cccc(C(F)(F)F)c2)n1 | Active

test system: Ammannia multiflora; assay: Pre-emergence herbicidal activity against Ammannia multiflora at 500 g a.i/ha measured after 14 days; format: functional, organism-based; details: not given

Compound | Activity
Cn1cc(C(=O)Nc2ccc(C(C)(C)C)cc2)c(OCc2cccc(C(F)(F)F)c2)n1 | inactive
Cn1cc(C(=O)Nc2ccc(S(C)(=O)=O)cc2)c(OCc2cccc(C(F)(F)F)c2)n1 | inactive
Cn1cc(C(=O)Nc2cccc(Cl)c2)c(OCc2cccc(C(F)(F)F)c2)n1 | Active

test system: Echinochloa oryzicola; assay: Pre-emergence herbicidal activity against Echinochloa oryzicola at 500 g a.i/ha measured after 14 days; format: functional, organism-based; details: not given

Compound | Activity
Cn1cc(C(=O)Nc2ccc(C(C)(C)C)cc2)c(OCc2cccc(C(F)(F)F)c2)n1 | inactive
Cn1cc(C(=O)Nc2ccc(S(C)(=O)=O)cc2)c(OCc2cccc(C(F)(F)F)c2)n1 | inactive
Cn1cc(C(=O)Nc2cccc(Cl)c2)c(OCc2cccc(C(F)(F)F)c2)n1 | inactive

test system: Eleocharis acicularis; assay: Post-emergence herbicidal activity against Eleocharis acicularis assessed as bleaching of stem/leaf parts; format: functional, organism-based; details: not given; further: test concentration or dose not given here

Compound | Activity
Cn1cc(C(=O)Nc2ccc(C(C)(C)C)cc2)c(OCc2cccc(C(F)(F)F)c2)n1 | Active
Cn1cc(C(=O)Nc2ccc(S(C)(=O)=O)cc2)c(OCc2cccc(C(F)(F)F)c2)n1 | Active
Cn1cc(C(=O)Nc2cccc(Cl)c2)c(OCc2cccc(C(F)(F)F)c2)n1 | Active

test system: Schoenoplectiella juncoides; assay: Post-emergence herbicidal activity against Schoenoplectiella juncoides assessed as bleaching of stem/leaf parts; format: functional, organism-based; details: not given; further: test concentration or dose not given here

Compound | Activity
Cn1cc(C(=O)Nc2ccc(C(C)(C)C)cc2)c(OCc2cccc(C(F)(F)F)c2)n1 | Active
Cn1cc(C(=O)Nc2ccc(S(C)(=O)=O)cc2)c(OCc2cccc(C(F)(F)F)c2)n1 | Active
Cn1cc(C(=O)Nc2cccc(Cl)c2)c(OCc2cccc(C(F)(F)F)c2)n1 | Active

test system: Rotala indica; assay: Pre-emergence herbicidal activity against Rotala indica assessed as bleaching of stem/leaf parts; format: functional, organism-based; details: not given

Compound | Activity
Cn1cc(C(=O)Nc2ccc(C(C)(C)C)cc2)c(OCc2cccc(C(F)(F)F)c2)n1 | Active
Cn1cc(C(=O)Nc2ccc(S(C)(=O)=O)cc2)c(OCc2cccc(C(F)(F)F)c2)n1 | Active
Cn1cc(C(=O)Nc2cccc(Cl)c2)c(OCc2cccc(C(F)(F)F)c2)n1 | Active

test system: Schoenoplectiella juncoides; assay: Pre-emergence herbicidal activity against Schoenoplectiella juncoides at 500 g a.i/ha measured after 14 days; format: functional, organism-based; details: not given

Compound | Activity
Cn1cc(C(=O)Nc2ccc(C(C)(C)C)cc2)c(OCc2cccc(C(F)(F)F)c2)n1 | inactive
Cn1cc(C(=O)Nc2ccc(S(C)(=O)=O)cc2)c(OCc2cccc(C(F)(F)F)c2)n1 | inactive
Cn1cc(C(=O)Nc2cccc(Cl)c2)c(OCc2cccc(C(F)(F)F)c2)n1 | Active

test system: Pontederia vaginalis; assay: Post-emergence herbicidal activity against Monochoria vaginalis assessed as bleaching of stem/leaf parts; format: functional, organism-based; details: not given; further: test concentration or dose not given here

Compound | Activity
Cn1cc(C(=O)Nc2ccc(C(C)(C)C)cc2)c(OCc2cccc(C(F)(F)F)c2)n1 | Active
Cn1cc(C(=O)Nc2ccc(S(C)(=O)=O)cc2)c(OCc2cccc(C(F)(F)F)c2)n1 | Active
Cn1cc(C(=O)Nc2cccc(Cl)c2)c(OCc2cccc(C(F)(F)F)c2)n1 | Active

test system: Lindernia procumbens; assay: Pre-emergence herbicidal activity against Lindernia procumbens assessed as bleaching of stem/leaf parts; format: functional, organism-based; details: not given

Compound | Activity
Cn1cc(C(=O)Nc2ccc(C(C)(C)C)cc2)c(OCc2cccc(C(F)(F)F)c2)n1 | Active
Cn1cc(C(=O)Nc2ccc(S(C)(=O)=O)cc2)c(OCc2cccc(C(F)(F)F)c2)n1 | Active
Cn1cc(C(=O)Nc2cccc(Cl)c2)c(OCc2cccc(C(F)(F)F)c2)n1 | Active
